Laboratory results reported in publication doi:10.1101/2025.09.18.676322v1 (bioRxiv, 2025).
Residues, ends and D or L forms follow the SMILES beside them.

Columns and labels:
[1] = reference compound of the assay; cited from earlier work
TREM2 = target: T1, TREM2 (Homo sapiens, UniProt Q9NZC2); test: Spectral shift assay of TREM2 binding; details: for TREM2 binding in spectral shift analysis (in words): labeled TREM2 10 nM, PBST pH 7.4, 10 min at room temperature
T1 sequence (Q9NZC2 19-174 limits assumed): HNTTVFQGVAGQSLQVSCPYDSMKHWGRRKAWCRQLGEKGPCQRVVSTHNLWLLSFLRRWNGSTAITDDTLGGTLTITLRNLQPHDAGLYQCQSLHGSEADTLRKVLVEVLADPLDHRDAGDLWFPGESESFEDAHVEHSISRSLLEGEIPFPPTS

Caco-2 cell permeability = assay type: in vitro ADME
[2] = Stability in rat liver microsomes; assay type: in vitro ADME
[3] = Stability in simulated intestinal fluid; assay type: in vitro ADME; details: pH 6.5
[4] = Stability in human plasma; assay type: in vitro ADME
[5] = Stability in simulated gastric fluid; assay type: in vitro ADME; details: pH 1.6
[6] = LogD7.4 by miniaturized shake-flask procedure; assay type: physicochemical; details: miniaturized shake-flask procedure at pH 7.4
[7] = reference compound of the assay; cited from earlier work; remark: listed apart in the source

CC[C@H]1OC(=O)[C@H](C)[C@@H](O[C@H]2C[C@@](C)(OC)[C@@H](O)[C@H](C)O2)[C@H](C)[C@@H](O[C@@H]2O[C@H](C)C[C@H](N(C)C)[C@H]2O)[C@](C)(O)C[C@@H](C)C(=O)[C@H](C)[C@@H](O)[C@]1(C)O [erythromycin]
Stability in intestinal simulated fluids, t1/2 [1]: 7.55 h

cyclo(LPGRLVSLPDGRHLC) [TP3]
TREM2 binding in spectral shift analysis (in words) (TREM2): did not exhibit detectable binding

cyclo(GSSVNVQTGEVL) [TP2]
TREM2 binding in spectral shift analysis (in words) (TREM2): measurable responses

cyclo(GNSVNVETGARL) [TP1]
TREM2 binding in spectral shift analysis (in words) (TREM2): measurable responses

CC(C)[C@@H]1NC(=O)CNC(=O)[C@H](C)NC(=O)[C@H](CO)NC(=O)[C@H](C(C)C)NC(=O)[C@H](CO)NC(=O)[C@H](C(C)C)NC(=O)[C@H](C)NC(=O)CNC(=O)[C@H](CC(=O)O)NC(=O)[C@H](CCCCN)NC(=O)[C@H](CCC(=O)O)NC(=O)[C@H]([C@@H](C)O)NC(=O)[C@H]([C@@H](C)O)NC1=O [TP4] (cyclo(AGVTTEKDGAVSVS); ring closure inferred)
Papp A→B (Caco-2 cell permeability): 1.32 ×10⁻⁶ cm/s | Papp B→A (Caco-2 cell permeability): 2.47 ×10⁻⁶ cm/s | half-life [2]: 3.94 h | half-life [3]: 5.82 h | remaining at 1 h [4]: 83.1% | half-life [5]: 0.93 h | LogD7.4 [6]: 1.03 | TREM2 binding in spectral shift analysis (in words) (TREM2): measurable responses | equilibrium dissociation constant (Kd), in words (TREM2; summary statement in the introduction, assay not named): sub-millimolar range

CC(C)[N+](C)(CCOC(=O)C1c2ccccc2Oc2ccccc21)C(C)C [propantheline]
Human plasma stability, t1/2 [7]: 2.6 min
